Source: patent US10100082B2, “Hexapeptide for neuroprotection against a β toxicity” (Council of Scientific and Industrial Research, priority 2016, dated 2018)
The star is where a group is joined. FITC = O=C1OC2(c3ccc(O)cc3Oc3cc(O)ccc32)c2ccc(NC(=S)*)cc21

Assays:
tubulin = tubulin mix with GTP, 30 min at 37° C., 561 nm channel
Experimental: Hexapeptide ‘NV’-Tubulin Interaction Study on Biotin Micropatterned Surface
Biotin micropatterned surfaces were prepared as previously described method. A flow chamber of around 5 μL was built from one biotin-patterned glass surface and one poly-L-lysine (PLL)-PEG passivated counter glass, separated by two strips of double sticky tape (Tesa). Flow chamber was equilibrated with BRB80 and incubated with β-casein for 10 min followed by washing with 20 μL BRB80 for complete removal of unbound β-casein. 100 nM neutravidin was flowed into the flow chamber and incubated for 10 min followed by removal of excess neutravidin with 20 μL BRB80. […] Then, the flow chamber was filled with 18.5 μM tubulin mix (80:20 unlabeled tubulin and Alexa568 tubulin) in BRB80 supplemented with 3 mM GTP, 10 mM MgCl2, and an oxygen scavenger system (50 mM glucose, 1 mg mL^−1 glucose oxidase, and 0.5 mg mL^−1 catalase) on an ice cold metal block and placed to the TIRF microscope at 37° C. Then flow chamber was imaged using an IX-81 total internal reflection fluorescence (TIRF) microscope (Olympus) with a 60×TIRFM objective (Olympus; Hamburg, Germany) and an Andor iXon3 897 Camera. Control experiment was performed, following previously described method without immobilizing ‘Bio-NV’ on biotin micropatterned surface.

[1] = test system: neuronally differentiated PC12 cells; assay: Neuroprotection against anti-NGF toxicity (NGF deprivation), intact nuclear counting; format: cell-based, rat; conditions: higher concentrations of NV
Experimental: On the fifth day they were treated overnight with anti-NGF along with different doses of inhibitor NV (FIG. 4d). […] The cells were observed under the microscope on the day following treatment; survival was assessed by intact nuclear counting assay (FIG. 4d).
Rat pheochromocytoma cells (PC12) cells were cultured as described previously (ESI) in RPMI medium supplemented with 10% heat-inactivated horse serum (HS) and 5% heat-inactivated fetal bovine serum. Neuronal differentiation of these cells was induced by NGF (100 ng/mL) in medium containing 1% horse serum for 6 days before the treatment, as previously described.
The cell viability was checked by the intact nuclear counting method. This assay was performed as described previously. In brief, a detergent containing the buffer that dissolved only the plasma membrane was added to the cells, the nuclear membrane thus remained intact. The intact nuclei were then counted on a haemocytometer under a light microscope. The number of live cells was expressed as percentage of the total cell population.

tau = conditions: previous study; cited from earlier work
amyloid beta = conditions: previous study; cited from earlier work
polymerized microtubules = assay: FITC-NV binding with microtubule at tubulin polymerization; conditions: FITC-NV during polymerization of alexa-568 labeled tubulin with GTP
Experimental: Hexapeptide NV Binding with Microtubule at Tubulin Polymerization
Mixture 1: Alexa Fluor 568-labeled tubulin (0.5 μL, 15 mg mL^−1, 65% labelling ratio), Tubulin (2 μL, 20 mg mL^−1), FITC-NV (0.5 μL, 1 mM), GTP (0.2 μL, […]) and BRB80 (46.8 μL; 80 mM PIPES, 1 mM EGTA; 1 mM MgCl2, pH adjusted to 6.8 by using concentrated KOH solution) were mixed on ice. The mixture was incubated for 30 min on 37° C. water bath.
Mixture 2: Taxol (0.4 μL, 1 mM) and BRB80 (180 μL) were mixed.
Final Mixture: After 30 min incubation 50 μL warmed mixture 2 was added into mixture 1. Then this mixture was separated in a table top centrifuge (7 min, 12000 rpm, Eppendorf 5810R bench-top centrifuge, rotor type F-34-6-38). The coloured pellet was resuspended in warm mixture 2. 10 μL resuspended solution of microtubule was placed on glass cover slip and imaged under inverted fluorescence microscope (NIKON Ti-U) in 40× magnification using ANDOR iXON3 camera.

Q: Which “binding of tubulin to immobilized Biotin-NV on micropatterns” value (tubulin) does the source give for Biotin-NAPVSIPQ-NH2 [Biotin-NV] here?
A: localized binding of tubulin

Q: For H-NAVSIQ-NH2 [NV, NH2-NAVSIQ-NH2], which “toxicity to control cells” value [1] is on record?
A: showed toxicity to control cells

Q: Which “inhibition of tau hyper phosphorylation in vivo” value (tau) does the source give for NH2-NAPVSIPQ-NH2 [NQ] here?
A: inhibit tau hyper phosphorylation in vivo

Q: And the “inhibition of amyloid beta fibrillation in vitro” value (amyloid beta)?
A: inhibits amyloid beta fibrillation in vitro

Q: For {FITC}-NAVSIQ-NH2 [FITC-NV], which “binding with polymerized microtubules” value (polymerized microtubules) is on record?
A: binds with polymerized microtubules
